Measured values published in US20250288548A1, “INTRANASAL BACLOFEN” (THE REGENTS OF THE UNIVERSITY OF CALIFORNIA, priority 2022, published 2025).

Key:
[1] = test system: patients with new acquired brain injury; experiment: Intranasal baclofen study in about 40 hospitalized patients (measured torque response, clinical response); assay type: in vivo, human
Description: FIG. 1 represents the summarized results of a study of about 40 patients. Grey bars represent patients treated with nasal baclofen, and white bars represent placebo. Bars to the left (negative) represent reduced tone, and right (positive) is worse tone. The middle line is no change. Statistically significant results are provided with error bars in this figure.
The first bar chart from left to right is baseline compared to visit 2 low dose (250 mcg). The second bar chart from left to right is baseline compared to visit 3 moderate dose (1000 mcg). The third bar chart from left to right is baseline compared to visit 4 high dose (2000 mcg). The fourth bar chart from left to right is baseline compared to visit 5 weaned off back to baseline (providing some residual effect). The p-values for the third panel, which represents the high dose are: Treatment p-value 0.004959, and Control p-value 0.232.
Forty (40) hospitalized patients with new acquired brain injury acutely treated in the PICU have been treated with intranasal baclofen. Aqueous intranasal solutions comprising 250 mcg, 1000 mcg, and/or 2000 mcg of baclofen and […] of sodium chloride per mL exploiting the nasal pathway have delivered baclofen to the CNS by circumventing the BBB. […]

[2] = test system: patient with increased tone after explantation of intrathecal baclofen pump; experiment: Individual intranasal baclofen test dose in PICU patient; assay type: in vivo, human; conditions: gablofen 2-50 mcg vials delivered intranasally as one administration; all enteral medications held
Description: A patient was admitted to a pediatric intensive care unit (PICU) due to increased tone after the patient had underwent surgical explantation of an intrathecal baclofen pump. The patient was on maximum doses of several enteral medications including enteral baclofen. They were given a test dose of intranasal baclofen administered in the PICU using commercially prepared intrathecal baclofen for test dose (gablofen 2-50 mcg vials delivered intranasally as one administration).

[3] = enteral doses ranging from 30 to 90 mg; cited from earlier work
[4] = at therapeutically effective intrathecal concentrations; cited from earlier work
[5] = solutions containing phosphate, sulfate, potassium, or magnesium; per U.S. Pat. No. 9,180,108 (also printed: greater than 4, 5, 6, 7 mg/mL); cited from earlier work
[6] = excised bovine nasal tissues; concentration independent transport, no polarized flux; cited from earlier work

## NCC(CC(=O)O)c1ccc(Cl)cc1 (centres unmarked) [baclofen, 4-amino-3-(p-chlorophenyl) butyric acid]
[1]; intranasal 250, 1000 and/or 2000 mcg solutions, versus maximized enteral baclofen dose (>90 mg/day)
  response compared with enteral baclofen: far greater than that observed with enteral baclofen
[1]; intranasal administration
  sedation compared with enteral baclofen: far less sedation
[2]
  change in tone after intranasal test dose: Significant improvement in tone
[3]
  CSF levels: 0.012 to 0.096 µg/mL
  plasma levels: 50 to 650 ng/mL
[4]
  plasma concentrations with intrathecal injection relative to oral/enteral administration: 100 times less
[5]
  concentration of baclofen that can be dissolved: greater than 2 mg/mL
[6]
  mechanism of absorption across nasal tissues: primarily absorbed via simple passive diffusion
